Laboratory results published in paper PMC12817916, “A small-molecule HSP90 inhibitor, NVP-HSP990, alleviates rotavirus infection” (Journal of Virology, 2025).
Read-outs that look alike come from different tables or passages of the source.

How the values were obtained:
RV EDIM strain = assay: RV EDIM diarrhea model in suckling mice (treatment after diarrhea onset); type: in vivo, BALB/c suckling mice
Experimental: BALB/c mice were purchased from Gempharmatech Inc. (Suzhou, China) and housed under SPF conditions (22 ± 1°C, 12 h light/dark cycle). Suckling mice were obtained by mating male and female adult BALB/c mice (12- to 16-week-old). Only the 7-day-old BALB/c suckling mice with body weights ranging from 2.5 g to 4.5 g were selected for RV diarrhea models. For induction of RV diarrhea, 1 × 10^6 PFU of SA11 strain or 10 × DD50 of EDIM strain in 20 µL PBS was orally inoculated using a pipette tip to 7-day-old BALB/c suckling mice regardless of their sexes, as sex has no significant influence on RV diarrhea occurrence. We used a scoring system to evaluate fecal consistency and color as described with some modification ([27]): no stool or brown formed stool (1 point); brown soft stool (2 points); yellow soft stool (3 points); and yellow watery stool (4 points). Mice with scores of ≥2 meant diarrhea occurrence, while mice with scores of 1 meant no diarrhea. At the end of each experiment, all infected or drug-treated suckling mice were humanely euthanized via CO2 asphyxiation.
Seven-day-old BALB/c suckling mice meeting the weight criteria within each litter were randomly assigned to experimental groups. Each litter was allocated to ensure one to three suckling mice per experimental group (variations dependent on the total number of groups). Data from suckling mice assigned to the same group across multiple litters were aggregated to achieve a total sample size of n = 3–6 per experimental group. Then, the suckling mice were orally inoculated with 1 × 10^6 PFU of the SA11 strain or 10 × DD50 of the EDIM strain, or with an equal amount of PBS as mock infection. For SA11 infection, the suckling mice were orally treated once with indicated doses of drugs or with an equal volume of DMSO as control at 2 h p.i. For EDIM infection, the suckling mice were orally treated with 0.2 mg/kg/day NVP-HSP990, 30 mg/kg/day ribavirin, or an equal amount of DMSO as control from 2 days post-infection (d p.i.) to indicated time points. Diarrhea scores and body weight were monitored from day 0 to day 7 post-infection in the SA11 infection model, and from day 0 to day 9 post-diarrhea occurrence (2–11 d p.i.) in the EDIM infection model. Blinding was applied throughout data collection and analysis.
The RV-infected suckling mice were sacrificed by CO2 asphyxiation at the indicated times, and small intestines (including duodenum, jejunum, and ileum) or colon was homogenized in 0.3 mL DMEM, centrifuged at 12,000 × g for 5 min at 4°C, and the supernatant was collected. Virus contents in the supernatant were titrated with PFA as described above. Viral antigens in the supernatant were detected with enzyme-linked immunosorbent assay (ELISA) kits for RV (CUSABIO, China) following the manufacturer’s instructions. For qPCR analysis of RV protein expression, the intestines were longitudinally split and washed in 1 mL DMEM by shaking for 30 s. Then, the tissues were cut into 0.5 cm segments, incubated in Hank’s buffer containing 2.5 mM EDTA-Na2 and 1 mM dithiothreitol (Sangon Biotech, China) at 37°C with rotation at 200 rpm for 30 min, filtered with a 70 µm strainer. Then the epithelial cells were pelleted by centrifugation at 500 × g for 5 min, purified with 20% Percoll (Cytiva, Sweden), and lysed in Trizol for RNA extraction and further qPCR analysis.
The jejunum and ileum of suckling mice were fixed in 4% paraformaldehyde for 24 h, washed with PBS twice, and then subjected to paraffin embedding and slicing at 5 µm thickness. The sections were stained with hematoxylin and eosin (Beyotime, China) and observed with an Olympus BX51 microscope, and the data were processed by CaseViewer 2.4 software. For immunohistochemistry analysis, the fixed tissues were dehydrated in 30% sucrose, embedded in Optimal Cutting Temperature compound, frozen with liquid nitrogen, and cryosliced at 10 µm thickness. […]

RV Wa (G1P[8]) strain = assay: In vitro assay of RV replication inhibition (PFA); type: cell-based, Rotavirus; settings: MOI = 1, 24 h p.i., PFA, read-out: IC50
Experimental: (§1) For analysis of effects of different […] on RV replication in vitro, 10,000 MA104 cells, 30,000 Caco-2 cells, and 80,000 HT-29 cells in 100 µL complete DMEM medium were seeded in 96-well plates and cultured at 37°C and 5% CO2 for 24 h. Then the cells were infected with RV Wa or SA11 strains (MOI = 1 (PFU/cell)) for 1 h. After removing the viruses and washing cells two times with DMEM, 100 µL DMEM containing the indicated concentrations of drugs was added to each well, and the plates were incubated at 37°C and 5% CO2. At 24 h p.i., the infected cells and culture medium were collected, frozen/thawed twice, and subjected to centrifugation at 1,000 × g for 3 min at room temperature. Then, the supernatant was subjected to analysis of viral load by PFA. […] Dose-response data (drug concentrations as x-axis and normalized inhibition percentages as y-axis) were fitted to a dose-response inhibition model ([Inhibitor] vs normalized response – Variable slope). […] Model adequacy was validated using goodness-of-fit metrics (R^2 ≥ 0.95), 95% confidence intervals, and residual distribution analysis.
(§2) Wa/SA11 strains were titrated by PFA, which was carried out as described (3) with some modification. Briefly, confluent monolayers of MA104 cells in 24-well tissue culture plates were infected with 100 µL supernatants containing infectious RV particles which were serially diluted (10^1, 10^2, 10^3, and 10^4) with DMEM containing 1 µg/mL trypsin and penicillin (10,000 U/mL)-streptomycin (5 µg/mL) (DMEM-T) for 1 h at 37°C. Then 400 µL agarose overlay (0.8% agarose in 1×DMEM-T) was added and the plates were incubated at 37℃ and 5% CO2 for 5 days. The cells in each well were fixed by 1 mL 4% paraformaldehyde (Sangon Biotech, China) overnight (> 12 h) at room temperature. Then, the paraformaldehyde and agarose were removed and the monolayers were stained with 0.5 ml of a 1% (v/v) crystal violet (Sangon Biotech, China) diluted in distilled water for 10 min at room temperature. Then, the plates were drained and dried, and the plaques were enumerated. As the EDIM strain is not able to grow in cell culture, it was titrated by qPCR analysis as described (4) with EDIM VP6 gene as the target.

RV SA11 (G3P[2]) strain = assay: In vitro assay of RV replication inhibition (PFA); type: cell-based, Rotavirus; settings: MOI = 1, 24 h p.i., PFA, read-out: IC50
Experimental: as §1, §2

`COc1cccc(-c2cc(F)ccc2[C@H]2Cc3nc(N)nc(C)c3C(=O)N2)n1` [NVP-HSP990] was tested. Which “therapeutic effect on diarrhea compared to ribavirin” value (RV EDIM strain; 0.2 mg/kg/day NVP-HSP990 vs 30 mg/kg/day ribavirin, oral, 5 days) did it give?
The value was “superior therapeutic effect”.

And the “weight gain in EDIM-infected suckling mice” value (RV EDIM strain; 0.2 mg/kg/day oral for 5 days, observed for another 5 days)?
Its value is “did not adversely affect”.

And the diarrhea scores (RV EDIM strain; 0.2 mg/kg/day oral for 5 days, observed for another 5 days, compared to untreated group)?
The diarrhea scores was “significantly reduced”.

And the “foamy degeneration and viral infection in small intestinal epithelial cells” value (RV EDIM strain; 0.2 mg/kg/day oral from 2 d p.i., 3 consecutive days, compared to untreated controls)?
Its value is “marked reduction”.

And the “RV viral antigens in colonic contents” value (RV EDIM strain; 0.2 mg/kg/day oral, 3 days, ELISA, vs untreated or ribavirin-treated (30 mg/kg/day) groups)?
The value was “significantly lower”.

And the “viral antigen (VP6 and NSP4) expression in intestinal epithelial cells” value (RV EDIM strain; 0.2 mg/kg/day oral, 3 days, qPCR, compared to untreated group)?
Its value is “significantly reduced”.

And the IC50 (RV Wa (G1P[8]) strain; Wa strain in Caco-2 cells)?
Its IC50 is 4 ± 1.28 nM.

And the IC50 (RV Wa (G1P[8]) strain; Wa strain in HT-29 cells)?
Its IC50 is 4.69 ± 0.9 nM.

What about the IC50 (RV Wa (G1P[8]) strain; Wa strain in MA104 cells) of the same compound?
Its IC50 is 0.96 ± 0.13 nM.

And the IC50 (RV SA11 (G3P[2]) strain; SA11 strain in Caco-2 cells)?
The IC50 was 7.47 ± 4.84 nM.

What about the IC50 (RV SA11 (G3P[2]) strain; SA11 strain in HT-29 cells) of the same compound?
Its IC50 is 3.85 ± 1.16 nM.

And the IC50 (RV SA11 (G3P[2]) strain; SA11 strain in MA104 cells)?
Its IC50 is 0.84 ± 0.17 nM.
